Source: patent publication US9149538B2, “Oligomer conjugates of heteropentacyclic nucleosides” (priority 2008, dated 2015)
Where two headings read alike, the source gives them in different places.

Columns and labels:
[1] = system: BVDV NADL; experiment: Anti-Bovine Diarrhea Virus (surrogate Hepatitis C) cytoprotection assay (XTT) in MDBK cells; format: cell-based, Bovine Viral Diarrhea virus; conditions: inhibition of virus-induced cell killing, 100 μM high test concentration
[2] = system: MDBK cells; conditions: read-out: TC50, cells plus drug only, XTT
[3] = system: MDCK cells
[4] = system: Influenza A/Hong Kong/8/68; experiment: microbe, parasite or virus in culture; format: cell-based, influenza type A
[5] = in vitro; conditions: dog

Structure (SMILES)	EC50 [1]	CC50 [2]	CC50 [3]	EC50 ([4]; read-out: EC50)	EC50 ([1]; Bovine viral diarrhea virus isolates and strains, MDBK)	CC50 ([3]; dog)	CC50 ([5]; TC50)	EC50 [4]	EC50 ([4]; Influenza A virus, MDCK)	CC50 ([5]; TC50, MDCK cells, cells plus drug only, XTT)	EC50 ([4]; Influenza A virus, MDCK, MDCK/Influenza A/Hong Kong/8/68, inhibition of virus-induced cell killing, XTT, 100 μM high test concentration, read-out: EC50)
COCCOCCOCCOCCOCCOCCNC(=N)c1ncn([C@@H]2O[C@H](CO)[C@@H](O)[C@H]2O)n1 [mPEG6-N-Ribamidine]	> 100 µM	87.6 µM	> 100 µM	> 100 µM	–	–	–	–	–	–	–
COCCOCCOCCOCCOCCOCCOCCN(CCOCCOCCOCCOCCOCCOCCOC)C(=O)c1ncn([C@@H]2O[C@H](CO)[C@@H](O)[C@H]2O)n1 [Di-mPEG7-N-Ribavirin]	> 100 µM	> 100 µM	> 100 µM	> 100 µM	–	–	–	–	–	–	–
NC(=O)c1ncn([C@@H]2O[C@H](CO)[C@@H](O)[C@H]2O)n1 [Ribavirin, ribavirin, reference compound]	5.2 µM	–	–	–	8.1 µM	79 µM	50 µM	16.3 µM	18.2 µM	–	–
COCCOCCOCCOCCOCCNC(=O)c1ncn([C@@H]2O[C@H](CO)[C@@H](O)[C@H]2O)n1 [mPEG5-N-Ribavirin]	> 100 µM	> 100 µM	> 100 µM	> 100 µM	–	–	–	–	–	–	–
COCCOCCOCCOCCOCCOCCOCCNC(=N)c1ncn([C@@H]2O[C@H](CO)[C@@H](O)[C@H]2O)n1 [mPEG7-N-Ribamidine]	> 100 µM	> 100 µM	> 100 µM	> 100 µM	–	–	–	–	–	–	–
COCCOCCOCCOCCOCCN(CCOCCOCCOCCOCCOC)C(=O)c1ncn([C@@H]2O[C@H](CO)[C@@H](O)[C@H]2O)n1 [Di-mPEG5-N-Ribavirin]	> 100 µM	> 100 µM	19.5 µM	5.5 µM	–	–	–	–	–	–	–
COCCOCCOCCNC(=N)c1ncn([C@@H]2O[C@H](CO)[C@@H](O)[C@H]2O)n1 [mPEG3-N-Ribamidine]	> 100 µM	> 100 µM	> 100 µM	67.8 µM	–	–	–	–	–	–	–
NC12CC3CC(CC(C3)C1)C2 [Amantadine, amantadine, reference compound]	–	–	–	–	–	–	–	–	–	> 10 µM	0.1 µM
